Data reported in patent publication US20230310438A1 (priority 2019, published 2023).
Entries after “also recorded” stand apart in the source; their conditions may differ.

Tested on: whole blood of youth with OUD and healthy controls
Format: cell-based, human

Molecule | Th-polarizing cytokine production | induction of cytokines and chemokines such as IL-12p40, IL-6, CXCL8, CXCL10, CCL2 and TNF
CCOCc1nc2c(N)nc3ccccc3c2n1CC(C)(C)O [Formula R848, resiquimod] | robust and balanced | –
monophosphoryl lipid A [MPLA] | – | reduced; also recorded: impaired
